Literature values, collected in JP2011132186A, “ホルモン不応性前立腺癌治療法及び治療効果予測方法” (University of Tokushima NUC, priority 2009, dated 2011).

Tested on: hormone-refractory prostate cancer [ホルモン不応性前立腺癌]
Conditions: large phase III comparative trial in Europe and USA

Row | Compound | median survival time (OS)
1 | CC(=O)O[C@@]12CO[C@@H]1C[C@H](O)[C@@]1(C)C(=O)[C@H](O)C3=C(C)[C@@H](OC(=O)[C@H](O)[C@@H](NC(=O)OC(C)(C)C)c4ccccc4)C[C@@](O)([C@@H](OC(=O)c4ccccc4)[C@H]21)C3(C)C [ドセタキセル] | 18.9 months
2 | O=C1c2c(O)ccc(O)c2C(=O)c2c(NCCNCCO)ccc(NCCNCCO)c21 [ミトキサントロン] | 16.5 months
